Test results: patent US9969775B2, “CGRP antagonist peptides” (Ferring B.V., priority 2015, dated 2018)
Numbered stars: 1 amine (or outer) side, 2 acyl side, 3 side chain; on linkers, the order of the positions; unused ones are H or OH. Bridge positions count the residues as written; N and C are the ends. Square brackets hold non-standard residues; d marks the D form. Peptide text beside a SMILES is read from it. * marks the point of attachment. Phe(2-CONH2) = NC(=O)c1ccccc1C[C@H](N)C(=O)O; X5 = O=C([C@H](Cc1ccc(CO)cc1)N[*:1])[*:2]; Imidazole4carbonyl = O=C(c1cnc[nH]1)*; Picolinoyl(5-F) = O=C(c1ccc(F)cn1)*; Lys(Me2) = CN(C)CCCC[C@H](N)C(=O)O; Orn(iPr) = CC(C)NCCC[C@H](N)C(=O)O; Oxazole2carbonyl = O=C(c1ncco1)*; 3Pal = N[C@@H](Cc1cccnc1)C(=O)O; Picolinoyl = O=C(c1ccccn1)*; ΔPro = O=C(O)[C@@H]1C=CCN1; Orn = NCCC[C@H](N)C(=O)O; X1 = O=C(c1ncccc1F)*; X6 = O=C(c1ccncn1)*

Columns and labels:
[1] = target: T1, hCGRP receptor (CALCRL:RAMP1) (Homo sapiens, UniProt O60894+Q16602); assay: CGRP receptor antagonist activity measured by cAMP assay (HTRF); type: cell-based; settings: agonist human α-CGRP; for Emax: % MPE: percent of the maximal possible effect, read-out: hCGRP-R Efficacy Antag (%) Ave; for IC50: GeneBLAzer CALCRL:RAMP1-CRE-bla Freestyle 293F cells, 30 minutes, read-out: hCGRP-R IC50 Ave
T1 construct: host or cells: GeneBLAzer CALCRL:RAMP1-CRE-bla Freestyle 293F
T1 sequence (Q16602 23-461): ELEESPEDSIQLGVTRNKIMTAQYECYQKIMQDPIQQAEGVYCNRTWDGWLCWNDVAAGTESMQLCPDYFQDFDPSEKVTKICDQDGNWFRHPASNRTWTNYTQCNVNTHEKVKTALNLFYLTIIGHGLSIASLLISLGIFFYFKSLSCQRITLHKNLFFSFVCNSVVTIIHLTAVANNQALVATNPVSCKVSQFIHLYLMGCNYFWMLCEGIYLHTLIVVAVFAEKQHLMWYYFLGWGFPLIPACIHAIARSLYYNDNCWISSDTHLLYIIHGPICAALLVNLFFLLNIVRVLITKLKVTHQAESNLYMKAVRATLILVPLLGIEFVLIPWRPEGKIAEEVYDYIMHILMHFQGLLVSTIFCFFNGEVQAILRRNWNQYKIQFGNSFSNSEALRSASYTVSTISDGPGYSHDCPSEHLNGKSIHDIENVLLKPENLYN
T1 sequence (O60894 27-148): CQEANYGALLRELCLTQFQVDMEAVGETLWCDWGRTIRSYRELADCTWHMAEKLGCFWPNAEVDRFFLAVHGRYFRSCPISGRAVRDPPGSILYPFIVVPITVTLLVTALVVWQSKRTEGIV
Method: Example 6: CGRP Receptor Antagonist Activity Measured by cAMP Assay
CGRP receptor agonists increase intracellular cyclic adenosine mono-phosphate (cAMP). CGRP receptor antagonists can reduce the agonist effect. Antagonist activity was assessed by measurement of cyclic adenosine mono-phosphate (cAMP) using cell line stably expressing the hCGRP receptor (GeneBLAzer® CALCRL:RAMP1-CRE-bla Freestyle™ 293F, Invitrogen). hCGRP receptor expressing cells were maintained in DMEM high-glucose with GlutaMAX™ containing 10% (v/v) FBS, 0.1 mM NEAA, 25 mM HEPES, 5 ug/ml Blasticidin, 100 ug/ml Hygromycin, and 400 ug/ml Geneticin at 37° C. under 5% CO2 in a humidified atmosphere. For cAMP measurement, cells were washed once with 5 ml 1×PBS, cell maintenance media was replaced with compound buffer ((CB): DMEM containing 0.1% BSA and 0.5 mM IBMX), and flasks were incubated for 1 hour at 37° C. under 5% CO2 in a humidified atmosphere. Cells were removed from culture flasks using non-enzymatic cell dissociation buffer and harvested in CB. The reaction was performed in 384 well white small volume plates (Greiner) at a density of 10,000 cells/well. Cells were exposed to varying concentrations of antagonist compounds for 30 minutes in the presence of a fixed concentration of agonist (human α-CGRP). cAMP levels were measured using an HTRF (homogeneous time resolved fluorescence)-based competitive cAMP immunoassay (cAMP Dynamic 2 Kit, Cisbio), according to the manufacturer's instructions. […] Reported parameters include antagonist potency IC50 (the concentration causing half-maximal inhibition of the agonist response for antagonist compounds) and efficacy (% MPE: percent of the maximal possible effect).

[2] = target: T2, hAM2 receptor (CALCRL:RAMP3) (Homo sapiens, UniProt O60896+Q16602); assay: AM2 receptor antagonist activity measured by cAMP assay (HTRF); type: cell-based; settings: for Emax: % MPE: percent of the maximal possible effect, read-out: hAM2-R Efficacy Antag (%) Ave; for Emax / IC50: agonist human adrenomedullin; for IC50: GeneBLAzer CALCRL:RAMP3-CRE-bla Freestyle 293F cells, read-out: hAM2-R IC50 Ave; for selectivity ratio CGRP/AM2: selectivity ratio for hCGRP over hAM2, calculated from the IC50 values
T2 construct: expressed in transfected cells; host or cells: GeneBLAzer CALCRL:RAMP3-CRE-bla Freestyle 293F
T2 sequence (Q16602 23-461): as the sequence (Q16602 23-461) above
T2 sequence (O60896 24-148): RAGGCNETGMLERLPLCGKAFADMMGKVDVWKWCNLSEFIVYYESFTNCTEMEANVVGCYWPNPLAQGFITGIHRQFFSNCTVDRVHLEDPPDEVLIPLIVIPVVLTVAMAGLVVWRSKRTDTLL
Method: Antagonist activity for the adrenomedullin receptor AM2 was determined using the method described in Example 6 above, with the following modifications. Instead of GeneBLAzer® CALCRL:RAMP1-CRE-bla Freestyle™ 293F cells, GeneBLAzer® CALCRL:RAMP3-CRE-bla Freestyle™ 293F cells were used to test activity at hAM2 receptors. The agonist was human adrenomedullin, instead of α-CGRP.
In Table 5, the selectivity ratio for hCGRP over hAM2 is calculated as hCGRP-R IC50/hAM2-R IC50.

Row | Compound | Emax [1] [%] | IC50 [1] [nM] | Emax [2] [%] | IC50 [2] [nM] | selectivity ratio CGRP/AM2 [2]
1 | CC(C)NCCC[C@@H]1NC(=O)[C@@H](NC(=O)[C@H](Cc2ccc(O)cc2)NC(=O)[C@H](NC(=O)c2ccccn2)C(C)C)CSSC[C@@H](C(=O)N[C@@H](Cc2cccnc2)C(N)=O)NC(=O)[C@H](Cc2ccc(CO)cc2)NC(=O)[C@@H]2CCCN2C(=O)CNC(=O)[C@H](C(C)C)NC(=O)[C@H](CC(=O)O)NC1=O [Compound 55, Picolinoyl-D-Val-Tyr-c(Cys-Orn(iPr)-Asp-Val-Gly-Pro-Phe(4-CH2OH)-Cys)-3Pal-NH2] (Picolinoyl-[dV]YC[Orn(iPr)]DVGP[X5]C[3Pal]-NH2; disulfide 3-10) | 100 | 0.18 | 100 | 137 | 746
2 | CC(C)[C@@H]1NC(=O)[C@H](CC(=O)O)NC(=O)[C@H](CCCNC(=N)N)NC(=O)[C@@H](NC(=O)[C@H](Cc2ccc(O)cc2)NC(=O)[C@H](NC(=O)c2cnc[nH]2)C(C)C)CSSC[C@@H](C(=O)N[C@@H](Cc2cccnc2)C(N)=O)NC(=O)[C@H](Cc2ccccc2)NC(=O)[C@@H]2CCCN2C(=O)CNC1=O [Compound 37] (Imidazole4carbonyl-[dV]YCRDVGPFC[3Pal]-NH2; disulfide 3-10) | 100 | 0.17 | 100 | 379 | 2295
3 | CC(C)[C@@H]1NC(=O)[C@H](CC(=O)O)NC(=O)[C@H](CCCN)NC(=O)[C@@H](NC(=O)[C@H](Cc2ccc(O)cc2)NC(=O)[C@H](NC(=O)c2ccc(F)cn2)C(C)C)CSSC[C@@H](C(=O)N[C@@H](Cc2cccnc2)C(N)=O)NC(=O)[C@H](Cc2ccc(CO)cc2)NC(=O)[C@@H]2CCCN2C(=O)CNC1=O [Compound 56, Picolinoyl(5-F)-D-Val-Tyr-c(Cys-Orn-Asp-Val-Gly-Pro-Phe(4-CH2OH)-Cys)-3Pal-NH2] ({Picolinoyl(5-F)}-[dV]YC[Orn]DVGP[X5]C[3Pal]-NH2; disulfide 3-10) | 100 | 0.17 | 100 | 55 | 328
4 | CC(C)[C@@H]1NC(=O)[C@H](CC(=O)O)NC(=O)[C@H](CCCNC(=N)N)NC(=O)[C@@H](NC(=O)[C@H](Cc2ccc(O)cc2)NC(=O)[C@H](NC(=O)c2ncccc2F)C(C)C)CSSC[C@@H](C(=O)N[C@@H](Cc2cccnc2)C(N)=O)NC(=O)[C@H](Cc2ccccc2)NC(=O)[C@@H]2CCCN2C(=O)CNC1=O [Compound 17] (X1-[dV]YCRDVGPFC[3Pal]-NH2; disulfide 3-10) | 100 | 0.05 | 100 | 7.1 | 148
5 | CC(C)[C@@H]1NC(=O)[C@H](CC(=O)O)NC(=O)[C@H](CCCNC(=O)[C@@H](N)CCCCN(C)C)NC(=O)[C@@H](NC(=O)[C@H](Cc2ccc(O)cc2)NC(=O)[C@H](NC(=O)c2ccncn2)C(C)C)CSSC[C@@H](C(=O)N[C@@H](Cc2cccnc2)C(N)=O)NC(=O)[C@H](Cc2ccccc2)NC(=O)[C@@H]2CCCN2C(=O)CNC1=O [Compound 45, Pyrimidine-4-carbonyl-D-Val-Tyr-c(Cys-Orn(Lys(Me2))-Asp-Val-Gly-Pro-Phe-Cys)-3Pal-NH2] (X6-[dV]YC[Orn](Lys(Me2))DVGPFC[3Pal]-NH2; disulfide 3-10) | 100 | 0.18 | 98 | 198 | 1082
6 | CC(C)NCCC[C@@H]1NC(=O)[C@@H](NC(=O)[C@H](Cc2ccccc2C(N)=O)NC(=O)[C@H](NC(=O)c2ncco2)C(C)C)CSSC[C@@H](C(=O)N[C@@H](Cc2cccnc2)C(N)=O)NC(=O)[C@H](Cc2ccc(O)cc2)NC(=O)[C@@H]2C=CCN2C(=O)CNC(=O)[C@H](C(C)C)NC(=O)[C@H](CC(=O)O)NC1=O [Compound 57, Oxazole-2-carbonyl-D-Val-Phe(2-Cbm)-c(Cys-Orn(iPr)-Asp-Val-Gly-Dhp-Tyr-Cys)-3Pal-NH2] (Oxazole2carbonyl-[dV][Phe(2-CONH2)]C[Orn(iPr)]DVG[ΔPro]YC[3Pal]-NH2; disulfide 3-10) | 100 | 0.12 | 99 | 624 | 5225
